Laboratory results as given in patent US12247011B2, “Selective inhibitors of NLRP3 inflammasome” (NodThera Limited, priority 2017, dated 2025).

System: IL-1β release upon NLRP3 activation in peripheral blood mononuclear cells (PBMC)
Experiment: PBMC IC50 Determination Assay
Assay type: cell-based
Conditions: Homo sapiens; LPS-primed PBMC, 30 min compound, stimulated with ATP (5 mM) or nigericin (10 μM) for 1 h; IL-1β ELISA; read-out: PBMC IC50
Experimental: PBMC IC50 Determination Assay
The compounds of the present disclosure were tested for their inhibitory activity against IL-1β release upon NLRP3 activation in peripheral blood mononuclear cells (PBMC).
Isolated cells were seeded into the wells of a 96-well plate and incubated for 3 h with lipopolysaccharide (LPS). Following medium exchange, the compounds of the present disclosure were added (a single compound per well) and the cells were incubated for 30 min. Next, the cells were stimulated either with ATP (5 mM) or nigericin (10 μM) for 1 h and the cell culture media from the wells were collected for further analysis.
The release of IL-1β into the media was determined by a quantitative detection of IL-1β in the media using an IL-1β enzyme-linked immunosorbent assay (ELISA) Ready-SET-Go!, eBioscience cat. […] Subsequently, plates were blocked with blocking buffer for 1 h at room temperature (rt) and after washing with a buffer (PBS with 0.05% Tween-20) incubated with protein standard and culture media. […] Plates were washed and incubated with HRP-streptavidin for 30 min at rt and washed again. The signal was developed after addition of 3,3,5,5-tetramethylbenzidine-peroxidase (TMB) until colour appeared and the reaction was stopped by 2 M H2SO4. A microplate spectrophotometer (BioTek) was used to detect signals with 450 nm. The detection range of IL-1β ELISA was 2-150 ng/ml.

`CCOC(=O)COC(=O)Nc1c(F)cccc1F` [Compound 2, Ethyl 2-{[(2,6-difluorophenyl)carbamoyl]oxy}acetate] and `CCOC(=O)COC(=O)Nc1c(C)cccc1Cl` [Compound 10] fall in the same range of IC50: 1000 to 10000 nM for the first, 1000 to 10000 nM for the second.

`O=C(O)COC(=O)Nc1c2c(cc3c1CCC3)CCC2` [Compound 27, 2-{[(1,2,3,5,6,7-Hexahydro-s-indacen-4-yl)carbamoyl]oxy}acetic acid] and `O=C(COC(=O)Nc1c2c(cc3c1CCC3)CCC2)OC1CC1` [Compound 39, cyclopropyl 2-{[(1,2,3,5,6,7-hexahydro-s-indacen-4-yl)carbamoyl]oxy}acetate] fall in the same range of IC50: 1000 to 10000 nM for the first, 1000 to 10000 nM for the second.

`CC(C)OC(=O)C(Cc1ncccn1)OC(=O)Nc1c(F)cccc1Cl` (centres unmarked) [Compound 123, Propan-2-yl 2-{[(2-chloro-6-fluorophenyl)carbamoyl]oxy}-3-(pyrimidin-2-yl)propanoate] and `CC(C)OC(=O)C(Cc1ncccn1)OC(=O)Nc1c(F)cccc1F` (centres unmarked) [Compound 124, Propan-2-yl 2-{[(2,6-difluorophenyl)carbamoyl]oxy}-3-(pyrimidin-2-yl)propanoate] fall in the same range of IC50: 100 to 1000 nM for the first, 100 to 1000 nM for the second.

Compared with `CCOC(=O)C(Cn1cccn1)OC(=O)Nc1c(C)cc(C(F)(F)F)cc1C` (centres unmarked) [Compound 91, Ethyl 2-({[2,6-dimethyl-4-(trifluoromethyl)phenyl]carbamoyl}oxy)-3-(1H-pyrazol-1-yl)propanoate], `CCOC(=O)C(Cn1cccn1)OC(=O)Nc1c(F)cc(F)cc1F` (centres unmarked) [Compound 73, Ethyl 3-(1H-pyrazol-1-yl)-2-{[(2,4,6-trifluorophenyl)carbamoyl]oxy}propanoate] is lower in IC50: 1000 to 10000 nM for the first, 100 to 1000 nM for the second. The second is the more potent here.

First: O=C(Nc1c2c(cc3c1CCC3)CCC2)OC(Cn1cccn1)C(=O)O (centres unmarked) [Compound 40, 2-{[(1,2,3,5,6,7-hexahydro-s-indacen-4-yl)carbamoyl]oxy}-3-(1H-pyrazol-1-yl)propanoic acid]
Second: N#Cc1cnn(C[C@@H](OC(=O)Nc2c3c(cc4c2CCC4)CCC3)C(=O)O)c1 [Compound 82, (2R)-3-(4-cyano-1H-pyrazol-1-yl)-2-{[(1,2,3,5,6,7-hexahydro-s-indacen-4-yl)carbamoyl]oxy}propanoic acid]
The IC50 of the first is higher: 100 to 1000 nM for the first, 10 to 100 nM for the second. The second is the more potent here.

`CCOC(=O)[C@@H](COC(C)C)OC(=O)Nc1c2c(cc3c1CCC3)CCC2` [Compound 104, Ethyl (2R)-2-{[(1,2,3,5,6,7-hexahydro-s-indacen-4-yl)carbamoyl]oxy}-3-(propan-2-yloxy)propanoate] and `CCOC(=O)C(Cn1cncc1C)OC(=O)Nc1c2c(cc3c1CCC3)CCC2` (centres unmarked) [Compound 81, Ethyl 2-{[(1,2,3,5,6,7-hexahydro-s-indacen-4-yl)carbamoyl]oxy}-3-(5-methyl-1H-imidazol-1-yl)propanoate] fall in the same range of IC50: 1000 to 10000 nM for the first, 1000 to 10000 nM for the second.

`CCOC(=O)COC(=O)Nc1c(C(C)C)cccc1C(C)C` [Compound 34, Ethyl 2-({[2,6-bis(propan-2-yl)phenyl]carbamoyl}oxy)acetate] and `CCOC(=O)COC(=O)Nc1ccccc1C(C)C` [Compound 15, Ethyl 2-(((2-isopropylphenyl)carbamoyl)oxy)acetate] fall in the same range of IC50: 1000 to 10000 nM for the first, 1000 to 10000 nM for the second.

Compared with `N#Cc1cnn(C[C@@H](OC(=O)Nc2c3c(cc4c2CCC4)CCC3)C(=O)OCc2ccccc2)c1` [Compound 77, Benzyl (2R)-3-(4-cyano-1H-pyrazol-1-yl)-2-{[(1,2,3,5,6,7-hexahydro-s-indacen-4-yl)carbamoyl]oxy}propanoate], `O=C(Nc1c2c(cc3c1CCC3)CCC2)O[C@H](Cn1cccn1)C(=O)OCc1ccccc1` [Compound 64, Benzyl (2R)-2-{[(1,2,3,5,6,7-hexahydro-s-indacen-4-yl)carbamoyl]oxy}-3-(1H-pyrazol-1-yl)propanoate] is higher in IC50: 10 to 100 nM for the first, 100 to 1000 nM for the second.

Compared with `CCOC(=O)C(Cn1cccn1)OC(=O)Nc1c(C)csc1C` (centres unmarked) [Compound 99, Ethyl 2-{[(2,4-dimethylthiophen-3-yl)carbamoyl]oxy}-3-(1H-pyrazol-1-yl)propanoate], `CCOC(=O)C(Cn1cccn1)OC(=O)Nc1c(C)ccc2ccccc12` (centres unmarked) [Compound 86, Ethyl 2-{[(2-methylnaphthalen-1-yl)carbamoyl]oxy}-3-(1H-pyrazol-1-yl)propanoate] is lower in IC50: 100 to 1000 nM for the first, 10 to 100 nM for the second. The second is the more potent here.

Compared with `CCOC(=O)C(Cn1cccn1)OC(=O)Nc1c(Cl)cccc1Cl` (centres unmarked) [Compound 52, Ethyl 2-{[(2,6-dichlorophenyl)carbamoyl]oxy}-3-(1H-pyrazol-1-yl)propanoate], `CCOC(=O)C(Cn1cccn1)OC(=O)Nc1c(F)ccc(Cl)c1F` (centres unmarked) [Compound 75, Ethyl 2-{[(3-chloro-2,6-difluorophenyl)carbamoyl]oxy}-3-(1H-pyrazol-1-yl)propanoate] is lower in IC50: 1000 to 10000 nM for the first, 100 to 1000 nM for the second.

`CCOC(=O)[C@@H](Cn1ccnc1)OC(=O)Nc1c2c(cc3c1CCC3)CCC2` [Compound 67, Ethyl (2R)-2-{[(1,2,3,5,6,7-hexahydro-s-indacen-4-yl)carbamoyl]oxy}-3-(1H-imidazol-1-yl)propanoate] and `CCOC(=O)[C@@H](Cn1cnc(C#N)c1)OC(=O)Nc1c2c(cc3c1CCC3)CCC2` [Compound 89, Ethyl (2R)-3-(4-cyano-1H-imidazol-1-yl)-2-{[(1,2,3,5,6,7-hexahydro-s-indacen-4-yl)carbamoyl]oxy}propanoate] fall in the same range of IC50: 100 to 1000 nM for the first, 100 to 1000 nM for the second.

First: CCOC(=O)C(Cc1cccc(-n2cccn2)c1)OC(=O)Nc1c2c(cc3c1CCC3)CCC2 (centres unmarked) [Compound 42, Ethyl 2-{[(1,2,3,5,6,7-hexahydro-s-indacen-4-yl)carbamoyl]oxy}-3-[3-(1H-pyrazol-1-yl)phenyl]propanoate]
Second: CCOC(=O)C(Cc1cccnc1)OC(=O)Nc1c2c(cc3c1CCC3)CCC2 (centres unmarked) [Compound 12, Ethyl 2-{[(1,2,3,5,6,7-hexahydro-s-indacen-4-yl)carbamoyl]oxy}-3-(pyridin-3-yl)propanoate]
The IC50 of the first is higher: 100 to 1000 nM for the first, 10 to 100 nM for the second. The second is the more potent here.

First: CCOC(=O)COC(=O)Nc1cccc2c1OC(C)(C)C2 [Compound 5, Ethyl 2-{[(2,2-dimethyl-2,3-dihydro-1-benzofuran-7-yl)carbamoyl]oxy}acetate]
Second: CCOC(=O)COC(=O)Nc1c(CC)cccc1CC [Compound 9, Ethyl 2-{[(2,6-diethylphenyl)carbamoyl]oxy}acetate]
The IC50 of the first is higher: greater than 10000 nM for the first, 100 to 1000 nM for the second. The second is the more potent here.

`CCOC(=O)COC(=O)Nc1c(C)cc(C)cc1C` [Compound 14, Ethyl 2-((mesitylcarbamoyl)oxy)acetate] and `CCOC(=O)COC(=O)Nc1cc(C(F)(F)F)ccc1F` [Compound 7, Ethyl 2-({[2-fluoro-5-(trifluoromethyl)phenyl]carbamoyl}oxy)acetate] fall in the same range of IC50: 1000 to 10000 nM for the first, 1000 to 10000 nM for the second.

`COC[C@@H](OC(=O)Nc1c2c(cc3c1CCC3)CCC2)C(=O)O` [Compound 69, (2R)-2-{[(1,2,3,5,6,7-hexahydro-s-indacen-4-yl)carbamoyl]oxy}-3-methoxypropanoic acid] and `O=C(Nc1c2c(cc3c1CCC3)CCC2)O[C@H](Cc1ncccn1)C(=O)O` [Compound 106, (2R)-2-{[(1,2,3,5,6,7-hexahydro-s-indacen-4-yl)carbamoyl]oxy}-3-(pyrimidin-2-yl)propanoic acid] fall in the same range of IC50: 100 to 1000 nM for the first, 100 to 1000 nM for the second.

Compared with `CC(C)OC(=O)C(Cc1ncccn1)OC(=O)NC1(C)CCCCC1` (centres unmarked) [Compound 122, Propan-2-yl 2-{[(1-methylcyclohexyl)carbamoyl]oxy}-3-(pyrimidin-2-yl)propanoate], `CC1CCCC(NC(=O)OC(Cc2ncccn2)C(=O)OC(C)C)C1` (centres unmarked) [Compound 118, Propan-2-yl 2-{[(3-methylcyclohexyl)carbamoyl]oxy}-3-(pyrimidin-2-yl)propanoate] is lower in IC50: greater than 10000 nM for the first, 1000 to 10000 nM for the second.
